Source: US11078228B2, “Ectonucleotidase inhibitors and methods of use thereof” (Calithera Biosciences, Inc., priority 2018, dated 2021)

Legend:
mouse plasma CD73 = mouse plasma CD73 (Mus musculus (Mouse), UniProt Q61503); experiment: Inhibition of CD73 in mouse plasma (IC50); format: biochemical
Protocol: (§1) The potency of Compound 9 was evaluated against recombinant CD73 and CD73-expressing SK-MEL-28 cells using a malachite green assay. Inhibition of CD73 in plasma was measured using LC/MS to assess conversion of ^15N5-AMP into ^15N5-ADO. FIG. 4A indicates the nanomolar inhibition of CD73 cells from both human and mouse sources. […] Inhibition of CD73 in plasma was measured using LC/MS to assess conversion of ^15N5-AMP into ^15N5-ADO.
Single dose Compound 9 (50 mg/kg) was administered orally to mice and plasma was collected at indicated time points. Compound 9 levels were measured by LC/MS. Plasma was harvested from mice 2 hours post dose and spiked with ^15N5-AMP and a TNAP inhibitor. ^15N5-ADO levels were measured by LC/MS.

A375 cells = experiment: Viability of A375 cells, CellTiter-Glo; format: cell-based, human; conditions: 100 μM, 3 days
Protocol: (§2) Viability of EG7 and A375 cells treated with 100 μM Compound 9 was measured using CellTiter-Glo after 3 days. Proliferation of human CD8+ T cells was measured by flow cytometry after 4 days of treatment with 100 μM Compound 9 using CellTrace CFSE Cell Proliferation Kit.

recombinant CD73 [1] = molecular target: T1, recombinant CD73 (Homo sapiens (Human), UniProt P21589); experiment: Potency against recombinant CD73, malachite green assay; format: biochemical
Protocol: as §1
Target sequence in this assay (P21589 27-574): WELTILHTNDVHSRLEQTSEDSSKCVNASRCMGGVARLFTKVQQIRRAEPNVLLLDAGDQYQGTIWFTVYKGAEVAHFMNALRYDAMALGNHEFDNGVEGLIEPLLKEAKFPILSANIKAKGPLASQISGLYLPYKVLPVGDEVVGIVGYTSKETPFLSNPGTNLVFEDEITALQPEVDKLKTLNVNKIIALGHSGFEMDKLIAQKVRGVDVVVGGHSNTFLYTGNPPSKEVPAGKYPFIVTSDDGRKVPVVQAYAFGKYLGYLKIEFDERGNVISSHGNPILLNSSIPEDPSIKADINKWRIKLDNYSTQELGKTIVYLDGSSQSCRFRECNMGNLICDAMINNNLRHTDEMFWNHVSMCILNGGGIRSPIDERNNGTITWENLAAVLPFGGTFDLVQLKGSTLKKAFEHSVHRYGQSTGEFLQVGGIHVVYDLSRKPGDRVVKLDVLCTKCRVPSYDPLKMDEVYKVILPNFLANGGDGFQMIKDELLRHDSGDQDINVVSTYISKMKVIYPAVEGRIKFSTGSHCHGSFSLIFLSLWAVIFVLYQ

PDE3 enzyme = experiment: Eurofins Safety Screen Panel: PDE3; format: biochemical; conditions: 10 μM
Protocol: Using Compound 9, the activity of cell surface CD39 was assessed using K562 cells expressing human CD39 and Kinase-Glo. Activity of recombinant human ENTPD2 and ENTPD3 was assessed using a malachite green assay. […] Compound 9 was screened in the Eurofins Safety Screen Panel and the Eurofins Express Diversity Kinase Profile Panel. In the Safety Panel, 1/87 targets were inhibited at >50% at 10 μM of Compound 9. The PDE3 enzyme was inhibited at 59%.

human plasma CD73 = human plasma CD73 (Homo sapiens (Human), UniProt P21589); experiment: Inhibition of CD73 in human plasma, LC/MS conversion of 15N5-AMP into 15N5-ADO; format: biochemical
Protocol: as §1

recombinant CD73 [2] = molecular target: T1, recombinant CD73; experiment: Assay 2: Inhibition of the CD73 enzyme in vitro (0.05 nM CD73, 1 hour 37° C., Malachite Green); format: biochemical; conditions: 0.05 nM CD73, 50 μM AMP, 1 hour at 37° C.
Summary of the method: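 Soluble recombinant CD73 reactions ran 1 hour at 37° C. Malachite Green was then added, and absorbance at 630 nm was read after 5 min at room temperature. Inorganic phosphate was quantified from a phosphate standard curve.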
Target sequence in this assay (P21589 27-547): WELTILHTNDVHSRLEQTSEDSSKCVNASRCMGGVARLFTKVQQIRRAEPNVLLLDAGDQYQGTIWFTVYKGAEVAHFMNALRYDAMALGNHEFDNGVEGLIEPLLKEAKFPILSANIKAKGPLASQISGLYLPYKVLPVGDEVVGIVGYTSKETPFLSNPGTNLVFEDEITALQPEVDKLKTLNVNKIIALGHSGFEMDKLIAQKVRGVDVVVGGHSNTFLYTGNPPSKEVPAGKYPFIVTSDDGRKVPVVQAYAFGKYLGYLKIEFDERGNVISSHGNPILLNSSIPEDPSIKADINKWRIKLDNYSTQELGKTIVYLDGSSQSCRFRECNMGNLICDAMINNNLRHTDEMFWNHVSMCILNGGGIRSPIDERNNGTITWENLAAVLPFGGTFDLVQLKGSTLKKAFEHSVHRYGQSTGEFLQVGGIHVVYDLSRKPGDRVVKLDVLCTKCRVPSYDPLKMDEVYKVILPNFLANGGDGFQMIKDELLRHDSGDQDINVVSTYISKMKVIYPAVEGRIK

EG7 cells [3] = experiment: EG7 subcutaneous tumor model in C57BL/6 mice, tumor volume; format: in vivo, mouse
Protocol: (§3) EG7 cells were implanted subcutaneously into C57BL/6 mice. Compound 9 (50 mg/kg) or vehicle was orally administered BID starting day one post implant (N=10 per group). Tumors were excised on day 14 and analyzed by flow cytometry. Compound 9 increased the % CD8+ cells of CD45+ cells as shown in FIG. 1A (* indicates p<0.05). EG7 cells were implanted subcutaneously into C57BL/6 mice. Anti-CD8 antibody was dosed i.p. on days −1, 0, 5, and 10. Compound 9 (50 mg/kg) or vehicle was orally dosed BID starting on day 1.
Compounds of the invention show potent anti-tumor effects, evidenced in reducing tumor volume in a mouse model. In one model, EG7 cells were implanted subcutaneously into C57BL/6 mice. Compound 9 or vehicle was orally administered BID starting day one post implant (N=10 per group). […] In another model, EG7 cells were implanted subcutaneously into C57BL/6 mice. Compound 9 was orally administered BID (100 mg/kg) starting day one post implant (N=10 per group). Vehicle was orally administered BID starting day one post implant (N=20) until day five post implant, at which time, mice were randomized by tumor volume into two groups. Compound 9 (100 mg/kg) or vehicle was orally administered BID to N=10 per group starting day six post implant. […] FIGS. 13B-D show individual replications of this measurement for each dosing. FIG. 13B is vehicle. FIG. 13C is dosing of Compound 9 started on day 1. FIG. 13D is Compound 9 started on day 6. In another model, CT26 cells were implanted subcutaneously into Balb/c mice. 100 mg/kg Compound 9 or vehicle was orally administered BID starting day one post implant (N=10 per group).
EG7 cells were implanted subcutaneously into C57BL/6 mice for each experiment. Anti-PD-L1 antibody (5 mg/kg) was dosed i.p. on Study Days 3, 5, 7, 9, 11, 13. Compound 9 (100 mg/kg) or vehicle was orally administered BID starting one day post implant. […] FIGS. 7B-7E show the individual replications of this measurement for each dosing. FIG. 7B is vehicle, FIG. 7C is anti-PD-L1 antibody, FIG. 7D is Compound 9, and FIG. 7E is Compound 9+ Anti-PD-L1.
Oxaliplatin was dosed i.p. 6 mg/kg on Study Days 7 and 14. Compound 9 (100 mg/kg) or vehicle was orally administered BID starting one day post implant. […] FIGS. 8B-8E show the individual replications of this measurement for each dosing. FIG. 8B is vehicle, FIG. 8C is oxaliplatin, FIG. 8D is Compound 9, and FIG. 8E is Compound 9+oxaliplatin.
Doxorubicin was dosed i.v. 2.5 mg/kg on Study Days 7 and 14. Compound 9 (50 mg/kg) or vehicle was orally administered BID starting one day post implant. […] FIGS. 9B-9E show the individual replications of this measurement for each dosing. FIG. 9B is vehicle, FIG. 9C is doxorubicin, FIG. 9D is Compound 9, and FIG. 9E is Compound 9+doxorubicin.
Docetaxel was dosed i.p. 5 mg/kg on Study Days 5, 12, and 19. Compound 9 (100 mg/kg) or vehicle was orally administered BID starting one day post implant. […] show the individual replications of this measurement for each dosing. FIG. 12B is vehicle, FIG. 12C is docetaxel, FIG. 12D is Compound 9, and FIG. 12E is Compound 9+docetaxel.

EG7 tumors = experiment: Tumor-directed immune response: flow cytometry of excised EG7 tumors; format: in vivo, mouse; conditions: 50 mg/kg orally BID from day one, tumors excised day 14
Protocol: as §3

[4] = molecular target: CD73-expressing SK-MEL-28 cells (Homo sapiens (Human), UniProt P21589); experiment: Human CD73 cell surface assay, CD73-expressing SK-MEL-28 cells, malachite green; format: cell-based
Protocol: as §1

EG7 cells [5] = experiment: Viability of EG7 cells, CellTiter-Glo; format: cell-based, mouse; conditions: 100 μM, 3 days
Protocol: as §2

Chain of human plasma CD73 (P21589 27-574): as the sequence (P21589 27-574) above
Chain of CD73-expressing SK-MEL-28 cells (P21589 27-574): as above
Chain of mouse plasma CD73 (Q61503 29-576): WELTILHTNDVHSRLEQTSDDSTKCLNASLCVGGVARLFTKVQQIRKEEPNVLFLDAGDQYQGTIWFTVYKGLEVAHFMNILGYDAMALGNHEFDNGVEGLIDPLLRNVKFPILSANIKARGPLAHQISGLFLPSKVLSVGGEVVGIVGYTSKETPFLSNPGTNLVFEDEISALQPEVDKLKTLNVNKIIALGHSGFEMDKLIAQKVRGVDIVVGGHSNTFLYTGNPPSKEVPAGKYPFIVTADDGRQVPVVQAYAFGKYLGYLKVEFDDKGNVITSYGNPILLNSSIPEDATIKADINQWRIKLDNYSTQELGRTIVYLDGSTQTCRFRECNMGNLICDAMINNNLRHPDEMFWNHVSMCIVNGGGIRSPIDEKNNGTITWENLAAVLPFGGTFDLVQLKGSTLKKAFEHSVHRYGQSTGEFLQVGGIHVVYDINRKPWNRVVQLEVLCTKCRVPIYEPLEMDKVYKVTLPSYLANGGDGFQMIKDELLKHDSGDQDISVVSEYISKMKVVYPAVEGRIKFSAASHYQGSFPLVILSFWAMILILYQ

IC50 (mouse plasma CD73): 1 nM
IC50 (recombinant CD73 [1]): 0.17 nM
IC50 (human plasma CD73): 0.38 nM
IC50 (recombinant CD73 [2]): 0.17 nM
IC50 [4]: 0.21 nM
SMILES: C#C[C@@]1(O)[C@@H](COC(Cc2ccc(N3CCCNC3=O)cc2)(C(=O)O)C(=O)O)O[C@@H](n2cnc3c(N)nc(Cl)nc32)[C@@H]1O [Compound 9, 2-(((2R,3S,4R,5R)-5-(6-amino-2-chloro-9H-purin-9-yl)-3-ethynyl-3,4-dihydroxytetrahydrofuran-2-yl)methoxy)-2-(4-(2-oxotetrahydropyrimidin-1 (2H)-yl)benzyl)malonic acid]
% cell survival of A375 cells (A375 cells): comparable % cell survival
PDE3 enzyme inhibition (PDE3 enzyme): 59%
tumor volume reduction, with or without CD8+ T cell depletion (EG7 cells [3]; 50 mg/kg orally BID from day 1, anti-CD8 antibody i.p. days -1, 0, 5, 10): more of a tumor volume reduction
tumor volume, established EG7 tumors (EG7 cells [3]; 100 mg/kg orally BID starting day six post implant): decrease in tumor volume
tumor volume, EG7, single agent and combination with doxorubicin (EG7 cells [3]; Compound 9 50 mg/kg orally BID, doxorubicin i.v. 2.5 mg/kg days 7 and 14): reduction in tumor volume
tumor volume, EG7, single agent and combination with anti-PD-L1 antibody (EG7 cells [3]; Compound 9 100 mg/kg orally BID, anti-PD-L1 5 mg/kg i.p. days 3, 5, 7, 9, 11, 13): reduction in tumor volume
tumor volume, EG7, single agent and combination with docetaxel (EG7 cells [3]; Compound 9 100 mg/kg orally BID, docetaxel i.p. 5 mg/kg days 5, 12, 19): reduction in tumor volume
tumor volume, EG7, single agent and combination with oxaliplatin (EG7 cells [3]; Compound 9 100 mg/kg orally BID, oxaliplatin i.p. 6 mg/kg days 7 and 14): reduction in tumor volume
tumor volume, EG7, dose response (EG7 cells [3]; orally BID from day one post implant, increasing doses): further decrease in tumor volume with increasing doses
% CD8+ cells of CD45+ cells (EG7 tumors): increased
% cell survival of EG7 cells (EG7 cells [5]): comparable % cell survival
